Tests used:
[1] = target: T1, CETP (Homo sapiens, UniProt P11597); experiment: CETP activity in vitro: transfer of [3H]CE from HDL donor to LDL acceptor particles; assay type: biochemical; conditions: 50% inhibition of [3H]CE transfer from HDL to LDL, 2 hours at 37° C.; read-out: IC50(μm)
T1 construct: made in house; host or cells: CHO cells (serum-free conditioned medium)
T1 sequence (P11597 18-493): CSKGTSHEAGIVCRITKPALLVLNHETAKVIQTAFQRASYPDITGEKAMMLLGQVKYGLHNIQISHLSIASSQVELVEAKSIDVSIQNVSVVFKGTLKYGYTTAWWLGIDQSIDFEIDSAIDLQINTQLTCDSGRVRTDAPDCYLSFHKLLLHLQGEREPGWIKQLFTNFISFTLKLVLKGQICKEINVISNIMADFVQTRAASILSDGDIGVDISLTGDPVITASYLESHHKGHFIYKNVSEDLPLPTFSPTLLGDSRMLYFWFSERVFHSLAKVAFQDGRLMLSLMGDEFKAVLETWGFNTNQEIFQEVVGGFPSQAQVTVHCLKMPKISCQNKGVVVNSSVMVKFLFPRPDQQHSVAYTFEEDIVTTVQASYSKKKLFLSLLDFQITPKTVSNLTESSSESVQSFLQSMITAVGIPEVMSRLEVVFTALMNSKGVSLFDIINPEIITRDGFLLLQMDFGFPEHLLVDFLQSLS
Summary of the method: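 Transfer of radiolabelled cholesteryl ester from HDL to LDL was followed over 2 h at 37 °C in Tris buffer (pH 7.4, 150 mM NaCl, 2 mM EDTA, 1% BSA), using CETP secreted by transfected CHO cells. Radioactivity in dextran sulfate/Mg-precipitated LDL was measured by scintillation counting, giving IC50.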

[2] = target: T2, CETP in human plasma or serum pool (Homo sapiens, UniProt P11597); experiment: Whole serum CETP activity assay (tritiated cholesterol ester); assay type: biochemical; conditions: 4 hours at 37° C.
T2 construct: from tissue; host or cells: pooled human EDTA plasma or serum from healthy volunteers
T2 sequence (P11597 18-493): T1 sequence (P11597 18-493)
Protocol: Blood was obtained from healthy volunteers recruited from the personnel of Monsanto Company, Saint Louis, Mo. Blood was either collected in tubes containing EDTA (EDTA plasma pool) or in tubes without EDTA (spun to form the serum pool). The EDTA human plasma pool or human serum pool, previously stored at −20° C., was thawed at room temperature, and centrifuged for 5 minutes to remove any particulate matter. Tritiated HDL, radiolabeled in the cholesteryl ester moiety ([^3H]CE-HDL) as described by Morton and Zilversmit (J. Biol. Chem., 256, 11992-95 (1981) which is incorporated by reference herein), was added to the plasma or serum to a final concentration of (25 μg/ml cholesterol).
Inhibitor compounds were added to the plasma or serum as follows: Equal volumes of the plasma or serum containing the [^3H]CE-HDL (396 μl) were pipetted into micro tubes (Titertube®, Bio-Rad Laboratories, Hercules, Calif.). Compounds, usually dissolved as 20-50 mM stock solutions in DMSO, were serially diluted in DMSO (or an alternative solvent in some cases, such as dimethylformamide or ethanol). Four μl of each of the serial dilutions of inhibitor compounds or DMSO alone were then added to each of the plasma or serum tubes. The tubes were immediately mixed. Triplicate aliquots (100 μl) from each plasma or serum tube were then transferred to wells of 96-well round-bottomed polystyrene microtiter plates (Corning, Corning, N.Y.). Plates were sealed with plastic film and incubated at 37° C. for 4 hours.
Test wells contained plasma or serum with dilutions of inhibitor compounds. Control wells contained plasma or serum with DMSO alone. Blank wells contained plasma or serum with DMSO alone that were left in the micro tubes at 4° C. for the 4 hour incubation and were added to the microtiter wells at the end of the incubation period. VLDL and LDL were precipitated by the addition of 10 μl of precipitating reagent (1% (w/v) Dextran Sulfate (Dextralip50)/0.5M magnesium chloride, pH 7.4) to all wells. The wells were mixed on a plate mixer and then incubated at ambient temperature for 10 min. The plates were then centrifuged at 1000×g for 30 mins at 10° C. The supernatants (50 μl) from each well were then transferred to Picoplate™ 96 plate wells (Packard, Meriden, Conn.) containing […] Microscint™-40 (Packard, Meriden, Conn.). The plates were heat-sealed (TopSeal™-P, Packard, Meriden, Conn.) according to the manufacturers directions and mixed for 30 min.
Radioactivity was measured on a microplate scintillation counter (TopCount, Packard, Meriden, Conn.). […] The maximum percent transfer (in the control wells) was determined using the following equation: [formula]
The percent of control transfer determined in the wells containing inhibitor compounds was determined as follows: [formula]
IC50 values were then calculated from plots of % control versus concentration of inhibitor compound.

[3] = system: CETP; experiment: Inhibition of CETP activity in vivo: [3H]CE transfer from HDL to VLDL and LDL after intravenous injection; set-up: species or system golden Syrian hamster; conditions: hamsters, injection into jugular vein, four hours
Source text: Inhibition of CETP by a test compound can be determined by administering the compound to an animal by intravenous injection, determining the rate of transfer of tritium-labeled cholesteryl ester (^3H]CE) from HDL to VLDL and LDL particles, and comparing the rate of transfer with the rate of transfer observed in control animals.
Male golden Syrian hamsters were maintained on a diet of chow containing 0.24% cholesterol for at least two weeks prior to the study. Immediately before the experiment, animals were anesthetized with pentobarbital. Anesthesia was maintained throughout the experiment. Indwelling catheters were inserted into the jugular vein and carotid artery. Test compound, Dimethyl 5,5′-dithiobis[2-difluoromethyl)-4-(2-methylpropyl)-6-(trifluoromethyl)-3-pyridinecarboxylate] (Compound 181), was dissolved as a 80 mM stock solution in vehicle (2% ethanol: 98% PEG 400, Sigma Chemical Company, St. Louis, Mo., USA). At the start of the experiment all animals received 0.2 ml of a solution containing [^3H]-CE-HDL into the jugular vein. [^3H[-CE-HDL is a preparation of human HDL containing tritium-labeled cholesteryl ester, and was prepared according to the method of Glenn et al. (“Quantification of Cholesteryl Ester Transfer Protein (CETP): A) CETP Activity and B) Immunochemical Assay of CETP Protein,” Meth. Enzymol., Glenn and Melton (Meth. Enzymol., 263, 339-351 (1996) which is incorporated herein by reference).
After 2 minutes, the animals received 0.1 ml of the test solution injected into the jugular vein. Control animals received 0.1 ml of the vehicle solution without test compound. After 5 minutes, the first blood samples (0.5 ml) were taken from the carotid artery and collected in standard microtainer tubes containing ethylenediamine tetraacetic acid. Saline (0.5 ml) was injected to flush the catheter and replace blood volume. Subsequent blood samples were taken at two hours and four hours by the same method. Blood samples were mixed well and kept on ice until the completion of the experiment.
Plasma was obtained by centrifugation of the blood samples at 4° C. The plasma (50 μl) was then treated with 5 μl of precipitating reagent (dextran sulfate, 10 g/l; 0.5M magnesium chloride to remove VLDL/LDL. After centrifugation, the resulting supernatant (25 μl) containing the HDL was analyzed for radioactivity using a liquid scintillation counter. The percentage [^3H] CE transferred from HDL to LDL and VLDL (% transfer) was calculated based on the total radioactivity in equivalent serum samples before precipitation. Typically, the amount of transfer from HDL to LDL and VLDL in control animals was 30 to 35% after four hours. The polyethylene glycol vehicle was determined to have no effect on CETP activity in this model.
(Compound 181), and five animals that received vehicle. At two hours, mean values of 13% [^3H]-Ce transfer from HDL to LDL and VLDL were obtained for the control animals, but only 4.7% transfer for the animals receiving Compound 181. […] Student t-tests were performed to determine if the means for control and animals treated with Compound 181 were statistically different.

COC(=O)c1c(C(F)F)nc(C(F)(F)F)c(S)c1CC(C)C [Compound 7, Methyl 2-(Difluoromethyl)-5-mercapto-4-(2-methylpropyl)-6-(trifluoromethyl)-3-pyridinecarboxylate]
IC50 [1]: 8.75 µM
IC50 whole serum CETP activity [2]: 17 µM
% Transfer of [3H]-CE from HDL to LDL and VLDL [3]: 10.6%
% Inhibition of CETP activity ([3]; versus control animals): 50%
